Results as given in PMC11364775, “Ion occupancy of the selectivity filter controls opening of a cytoplasmic gate in the K2P channel TALK-2” (Nature Communications, 2024).

What was measured:
[1] = target: T1, WT TALK-2 channels (human K2P17.1) (Homo sapiens, UniProt Q96T54); assay: Inside-out patch-clamp, ligand activation of channel currents at +40 mV (oocytes); details: 5 µM; TALK-2 WT
T1 sequence (Q96T54 1-332): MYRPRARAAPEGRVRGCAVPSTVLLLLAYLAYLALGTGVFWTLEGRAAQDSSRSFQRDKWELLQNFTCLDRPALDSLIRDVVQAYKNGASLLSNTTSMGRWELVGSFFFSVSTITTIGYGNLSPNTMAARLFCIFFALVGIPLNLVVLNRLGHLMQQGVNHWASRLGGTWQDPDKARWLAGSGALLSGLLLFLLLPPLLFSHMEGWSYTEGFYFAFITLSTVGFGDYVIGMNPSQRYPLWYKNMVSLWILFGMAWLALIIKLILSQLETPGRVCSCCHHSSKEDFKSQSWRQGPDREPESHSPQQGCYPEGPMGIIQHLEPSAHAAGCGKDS
Description: Oocytes were surgically removed from anesthetized adult females, treated with type II collagenase (Sigma-Aldrich/Merck, Germany) and manually defolliculated. 50 nl of a solution containing the K^+ channel specific cRNA was injected into Dumont stage V - VI oocytes and subsequently incubated at 17 °C in a solution containing (mM): 54 NaCl, 30 KCl, 2.4 NaHCO3, 0.82 MgSO4 x 7 H2O, 0.41 CaCl2, 0.33 Ca(NO3)2 x 4 H2O and 7.5 TRIS (pH 7.4 adjusted with NaOH/HCl) for 1–7 days before use. Electrophysiological recordings: Excised patch measurements in inside-out configuration under voltage-clamp conditions were performed at room temperature (22 – 24 °C). […] Intracellular bath solutions and compounds were applied to the cytoplasmic side of excised patches for the various K^+ channels via a gravity flow multi-barrel pipette system. Intracellular solution had the following composition (in mM): 120 KCl, 10 HEPES, 2 EGTA and 1 Pyrophosphate (pH adjusted with KOH/HCl). In other intracellular bath solutions, K^+ was replaced by Rb^+ (pH 7.4 adjusted with RbOH/HCl). Currents were recorded with an EPC10 amplifier (HEKA electronics, Germany) and sampled at 10 kHz or higher and filtered with 3 kHz (-3 dB) or higher as appropriate for sampling rate.
Recorded currents were analyzed from stable membrane patches at a voltage defined in the respective figure legend or with a voltage protocol as indicated in the respective figure. The fold activation (fold change in (tail) current amplitude) of a ligand (drug or bioactive lipid) was calculated from Eq. 1:1 Fold activationFA=Iactivated/Ibasal where Iactivated represents the stable current level in the presence of a given concentration of a respective ligand and Ibasal the measured current before ligand application. Percentage inhibition or residual currents upon blocker application for a ligand (drug or bioactive lipid) was calculated from stable currents of excised membrane patches using the following Eqs. 2 and 3:2 %inhibition=1−Iinhibited/Ibasal*100 3 Residual current=100−%inhibition where Iinhibited refers to the stable current level recorded in the presence of a given concentration of a drug or bioactive lipid and Ibasal to the measured current before ligand application. The macroscopic half-maximal concentration-inhibition relationship of a ligand was obtained using a Hill-fit for dose-response curves as depicted in Eq. 4:4 %inhibition/activation=Ibase+Imax−Ibase/1+x1/2/x^rate where base and max are the currents in the absence and presence of a respective ligand, x is the concentration of the ligand, x1/2 is the ligand concentration at which the activatory or inhibitory effect is half-maximal, rate is the Hill coefficient.

[2] = target: T2, WT TALK-2 channels (Homo sapiens, UniProt Q96T54); assay: Conductance-voltage (G-V) curves from tail currents, V1/2 (intracellular Rb+); type: cell-based; set-up: expressed in transfected cells; host or cells: Xenopus laevis oocytes (cRNA injection), excised inside-out patches; details: for Normalized current: TALK-2 WT + 5 µM Oleoyl-CoA
T2 sequence (Q96T54 1-332): T1 sequence (Q96T54 1-332)
Description: The voltage-dependent activation mechanism of the SF gate in K2P channels allows to estimate the electrical work (ΔG = zFΔV1/2) required for pore opening by fitting the G–V curve to a Boltzmann equation. […] The open state represents the situation of both gates being simultaneously open but voltage can only exert force on the SF gate that functions as voltage sensor. […] We further tested whether mutations that open the lower gate (L262A and L264A) would affect the extracellular pH sensitivity. […] We further explored this concept of allosteric coupling using the mutations identified in the functional alanine screen of TM2 and TM4. […]
Conductance-voltage (G–V) relationships were determined from tail currents recorded at a holding potential (VH) of −80 mV after 300 ms depolarizing steps as indicated in the respective figure legend. Data were analyzed with a single Boltzmann fit following Eq. 6:6 GV=Imax/1+e^V−V1/2/slope+Ibase where V1/2 represents the voltage of half-maximal activation, s is the slope factor and Imax and Ibase represent the upper and lower asymptotes. Under appropriate experimental conditions, you can use slope to calculate the valence (charge) of the ion moving across the channel. Slope equals R * T/ z * F where R is the universal gas constant, T is temperature in K, F is the Faraday constant, and z is the valence.

Fold activation 5 µM oleoyl-CoA [1]: 19.13 fold
V1/2 shift (mV) ([2]; 5 µM Oleoyl-CoA, shift of G-V curve): 26.7 mV
Normalized current ([2]; Voltage 0.000): 0.186
Normalized current ([2]; Voltage 0.005): 0.210
Normalized current ([2]; Voltage 0.010): 0.238
Normalized current ([2]; Voltage 0.015): 0.274
Normalized current ([2]; Voltage 0.020): 0.318
Normalized current ([2]; Voltage 0.025): 0.366
Normalized current ([2]; Voltage 0.030): 0.416
Normalized current ([2]; Voltage 0.035): 0.467
Normalized current ([2]; Voltage 0.040): 0.514
Normalized current ([2]; Voltage 0.045): 0.557
Normalized current ([2]; Voltage 0.050): 0.597
Normalized current ([2]; Voltage 0.055): 0.633
Normalized current ([2]; Voltage 0.060): 0.668
Normalized current ([2]; Voltage 0.065): 0.699
Normalized current ([2]; Voltage 0.070): 0.727
Normalized current ([2]; Voltage 0.075): 0.755
Normalized current ([2]; Voltage 0.080): 0.778
Normalized current ([2]; Voltage 0.085): 0.804
Normalized current ([2]; Voltage 0.090): 0.822
Normalized current ([2]; Voltage 0.095): 0.844
Normalized current ([2]; Voltage 0.100): 0.861
Normalized current ([2]; Voltage 0.105): 0.882
Normalized current ([2]; Voltage 0.110): 0.895
Normalized current ([2]; Voltage 0.115): 0.911
Normalized current ([2]; Voltage 0.120): 0.926
Normalized current ([2]; Voltage 0.125): 0.934
Normalized current ([2]; Voltage 0.130): 0.943
Normalized current ([2]; Voltage 0.135): 0.956
Normalized current ([2]; Voltage 0.140): 0.963
Normalized current ([2]; Voltage 0.145): 0.968
Normalized current ([2]; Voltage 0.150): 0.977
Normalized current ([2]; Voltage 0.155): 0.979
Normalized current ([2]; Voltage 0.160): 0.985
Normalized current ([2]; Voltage -0.005): 0.170
Normalized current ([2]; Voltage -0.010): 0.157
Normalized current ([2]; Voltage -0.015): 0.148
Normalized current ([2]; Voltage -0.020): 0.137
Normalized current ([2]; Voltage -0.025): 0.129
Normalized current ([2]; Voltage -0.030): 0.123
Normalized current ([2]; Voltage -0.035): 0.120
Normalized current ([2]; Voltage -0.040): 0.115
Normalized current ([2]; Voltage -0.045): 0.109
Normalized current ([2]; Voltage -0.050): 0.104
Normalized current ([2]; Voltage -0.055): 0.102
Normalized current ([2]; Voltage -0.060): 0.097
Normalized current ([2]; Voltage -0.065): 0.093
Normalized current ([2]; Voltage -0.070): 0.092
Normalized current ([2]; Voltage -0.075): 0.089
Normalized current ([2]; Voltage -0.080): 0.088
Normalized current ([2]; Voltage -0.085): 0.088
Normalized current ([2]; Voltage -0.090): 0.087
Normalized current ([2]; Voltage -0.095): 0.087
Normalized current ([2]; Voltage -0.100): 0.087
Normalized current ([2]; Voltage -0.105): 0.086
Normalized current ([2]; Voltage -0.110): 0.086
Normalized current ([2]; Voltage -0.115): 0.086
Normalized current ([2]; Voltage -0.120): 0.086
V1/2 ([2]; TALK-2 WT, 5 µM ligand): 44.9 mV
Structure (SMILES): CCCCCCCC/C=C\CCCCCCCC(=O)SCCNC(=O)CCNC(=O)[C@H](O)C(C)(C)COP(=O)(O)OP(=O)(O)OC[C@H]1O[C@@H](n2cnc3c(N)ncnc32)[C@H](O)[C@@H]1OP(=O)(O)O [oleoyl-CoA]
